Laboratory results reported in patent publication US20240197677A1 (VIVIER CANADA INC., priority 2016, published 2024).

Legend:
[1] = system: EpiDermFT™ (EFT-400) human in vitro tissue model
Description: EFT-400 tissues were treated with test compound every 48 hours for 4, 7 and 10 days.
Epidermal thickness was assessed by measuring 10 random regions of the Hematoxylin and Eosin (H&E) stained tissue sections using OlyVIA™ software.

[2] = cited from earlier work

SMILES: Cl.Cl.NCCCCN [putrescine, 1,4-Diaminobutane dihydrochloride]
- Thickness of H&E stained tissue sections (FIGS. 1A-F) ([1]; 0.1% Putrescine for 4 days): increased thickness
- Epidermis Thickness, Tissue1, Av. ([1]; 0.1% Test Article, EFT-400 Tissue1, average of 10 regions): 113.846 μm
- Epidermis Thickness, Tissue2, Av. ([1]; 0.1% Test Article, EFT-400 Tissue2, average of 10 regions): 117.160 μm
- Epidermis Thickness, Tissue3, Av. ([1]; 0.1% Test Article, EFT-400 Tissue3, average of 10 regions): 121.676 μm
- Epidermis Thickness, Av. of three tissues ([1]; 0.1% Test Article, average over Tissue1-3 (untreated 80.264 μm)): 117.561 μm
- Average increase of epidermal thickness versus untreated tissues ([1]; 0.1% putrescine): over 46%
- Epidermal thickness, average ([1]; 0.1% putrescine basolaterally in culture medium, 10 random regions of H&E sections): 117.561 μm
- Epidermal tissue thickness, visual (Cytokeratin 10 / desmoplakin-1 immunostaining) ([1]; after 4 days, 0.1% Putrescine): visually appear thicker than the untreated control tissues
- Tissue morphology ([1]; day 4, 0.1% Putrescine): consistent with healthy tissue
- pKa [2]: 10.51

SMILES: O=C1O[C@H]([C@@H](O)CO)C(O)=C1O [Vitamin C, L-ascorbic acid, reference compound]
- pKa [2]: around 4.17
